Test results: paper PMC6857474, “Differential Effects of the Mitochondria-Active Tetrapeptide SS-31 (D-Arg-dimethylTyr-Lys-Phe-NH2) and Its Peptidase-Targeted Prodrugs in Experimental Acute Kidney Injury” (Frontiers in Pharmacology, 2019)
Read-outs that look alike come from different tables or passages of the source. Non-standard residues stand in square brackets, D forms with d. Residues, ends and D or L forms follow the SMILES beside them. Dmt = Cc1cc(O)cc(C)c1C[C@H](N)C(=O)O

Columns and labels:
[1] = biological target: T1, aminopeptidase A (APA) (Rattus norvegicus, UniProt P50123); test: APA enzymatic activity in intact living EC219 cells (α-Glu-AMC substrate); assay type: cell-based
T1 construct: These cells express high levels of APA and γ-GT activities and can be used to measure kinetics in living cells; endogenous in cells; host or cells: EC219 rat brain-derived endothelial cells
T1 sequence (P50123 whole entry): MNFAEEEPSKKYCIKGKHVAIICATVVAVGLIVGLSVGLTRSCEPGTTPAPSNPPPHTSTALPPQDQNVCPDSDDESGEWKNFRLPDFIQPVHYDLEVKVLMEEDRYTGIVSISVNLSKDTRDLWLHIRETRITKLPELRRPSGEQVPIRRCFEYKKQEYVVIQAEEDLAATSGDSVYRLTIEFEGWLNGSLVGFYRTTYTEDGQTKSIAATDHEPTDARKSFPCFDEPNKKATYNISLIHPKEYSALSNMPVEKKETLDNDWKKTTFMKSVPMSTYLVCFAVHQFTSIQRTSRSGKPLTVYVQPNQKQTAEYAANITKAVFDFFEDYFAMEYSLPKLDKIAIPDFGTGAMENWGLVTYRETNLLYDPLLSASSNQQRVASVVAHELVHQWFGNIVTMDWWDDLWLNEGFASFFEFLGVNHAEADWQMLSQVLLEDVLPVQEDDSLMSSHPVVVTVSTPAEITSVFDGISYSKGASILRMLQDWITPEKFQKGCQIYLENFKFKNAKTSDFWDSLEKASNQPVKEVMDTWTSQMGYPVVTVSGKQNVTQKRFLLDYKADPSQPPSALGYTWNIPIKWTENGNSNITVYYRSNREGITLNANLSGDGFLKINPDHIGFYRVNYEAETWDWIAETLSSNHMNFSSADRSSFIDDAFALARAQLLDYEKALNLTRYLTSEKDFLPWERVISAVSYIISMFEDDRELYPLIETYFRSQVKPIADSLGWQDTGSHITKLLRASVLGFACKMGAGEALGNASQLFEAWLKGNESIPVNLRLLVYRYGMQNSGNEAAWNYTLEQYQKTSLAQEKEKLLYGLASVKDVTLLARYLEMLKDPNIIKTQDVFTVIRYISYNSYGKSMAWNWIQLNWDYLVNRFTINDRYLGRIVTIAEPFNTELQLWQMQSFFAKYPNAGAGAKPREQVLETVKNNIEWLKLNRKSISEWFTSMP
Experimental: The preparation and characterization of rat brain-derived EC219 endothelial cells were previously described ([Juillerat-Jeanneret et al., 1992]). These cells express high levels of APA and γ-GT activities and can be used to measure kinetics in living cells as APA and γ-GT-positive representative cell models. The cells were grown in Dulbecco’s modified Eagle medium (DMEM) containing 1 g/L glucose, 10% heat-inactivated fetal calf serum (FCS), and antibiotics on uncoated cell culture plastic plates and flasks. MDCK and LLCPK cells were obtained from the American Tissue Culture Collection (ATCC, Manassas, VA, USA) and were grown in DMEM containing 4.5 g/L glucose, 10% FCS, and antibiotics. mCCD, and mDCT cells were a kind gift from O. Bonny (UNIL, Lausanne, Switzerland) and were cultured in DMEM (Ham’s F12 1:1 vol/vol, 60 nM sodium selenate, 5 μg/ml transferrin, 50 nM dexamethasone, 1 nM triiodothyronine, 10 ng/ml epidermal growth factor, 5 μg/ml insulin) and 2% FCS. The characteristics of the used cell lines are shown in Supplementary Table S2 .
Stock solutions of α-Glu-AMC (APA) and γ-Glu-AMC and Gly-Gly (γ-GT) substrates, all from Bachem, were prepared at 10 mM in DMSO. EC219 cells were grown to confluence in 96-well plates (Corning, NY, USA), then the culture medium was removed, and the cell layers washed once with 100 µl PBS and 100 µl of substrates at decreasing concentrations (320–10 µM) of α-Glu-AMC or γ-Glu-AMC and 20 mM Gly-Gly substrates diluted in PBS and increasing concentrations (0–20 µM) of SS-31 analogs were added. The increase in […] was measured at 37°C in a thermostated fluorescence multiwell-plate reader (CytoFluor Series 4000; PerSeptive Biosystems, MA, USA) at λex = 360 nm/λem = 460 nm using the linear portion of the curves. The kinetics values were then graphically determined or according to Wu and colleagues ([Wu et al., 2011]).
(A) Intact living EC219 cells were exposed to increasing concentrations of either amastatin (left panel) or acivicin (right panel), two well-characterized enzymatic activity inhibitors of APA or γ-GT, respectively. The activities of the enzymes aminopeptidase A (APA) or γ-glutamyltranspeptidase (γ-GT) were determined using 40 µM of the substrates (S), α-Glu-AMC or γ-Glu-AMC, respectively. (B) Intact living EC219 cells were exposed to increasing concentrations [10-320 µM] of the APA α-Glu-AMC substrate, in the presence of increasing concentrations of SS-31 or α-Glu-SS-31, and the increase of free AMC fluorescence was recorded. Data were analyzed graphically. (DMSO 0.2% was present in all samples).

[2] = in vivo; settings: male, mouse, ip, 30 mg/kg
Experimental: For PK evaluation, SS-31 was administered i.p. to male mice in suspension (gelatine/saline 7.5%/0.62% in water) using an administration volume of 4 ml/kg. Blood samples were collected in tubes containing EDTA as an anticoagulant, and plasma was separated by centrifugation and stored at −80°C. Liver and kidney samples (∼100 mg aliquots) were homogenized in three volumes of water using Precellys tissue homogenization tubes (precellys.com). Twenty-five microliters of each tissue homogenate was further diluted with 25 µl blank plasma to produce the final tissue homogenate for extraction. Prepared samples were stored at −20°C before analysis.
All samples were analyzed using protein precipitation followed by LC-MS/MS analysis. Briefly, 50 µl plasma or final tissue homogenate was mixed with 50 µl 0.5 M HClO4/acetonitrile 9/1 (containing 200 ng/ml bosentan as an internal standard). Samples were stirred and 300 µl water was added, followed by centrifugation at 5600 rpm (4°C, 10 min). Ten microliters of supernatant was analyzed by LC/MS. Calibration standards in plasma were prepared the same way. The LC columns and conditions used were as follows: Phenomenex, Polar RP, 4 µm, and 50 × 2.1 mm at 0.4-ml/min flow rate with a 3-min gradient from 95% solvent A to 95% solvent B (solvent A: water/acetonitrile/HCOOH, 90:10:0.1 with 10 mM NH4 formate; solvent B: water/ACN/HCOOH, 10:90:0.1 with 10 mM NH4 formate). Mass spectrometric conditions were as follows: Thermo TSQ Vantage with positive heated electrospray ionization in MS/MS mode. Mass transitions of the compounds were m/z 320.7 to 119.9. Relative concentrations of the drug and metabolites were established by the percentage of peak area ratio compared to time zero spiked compounds. PK parameters for all studies were calculated using Phoenix WinNonlin Software.

[3] = Stability in mouse plasma at 37°C; assay type: in vitro ADME; settings: for Stability [% of T0] / Release of SS-31 from α-Glu-SS-31: 1 μM; for remaining at 0.5 h, 1 µM / remaining at 1 h, 1 µM / remaining at 3 h, 1 µM / remaining at 5 h, 1 µM: heparinized mouse plasma, read-out: Stability [% of T0]
Experimental: Finally, we determined if α-Glu functionalization of SS-31 would improve the plasma stability of the compound. SS-31 or α-Glu-SS-31 (at 1 µM concentration) was added to heparinized mouse plasma, and the aliquots were incubated at 37°C for various time points before analysis ( Table 2 ). After a rapid decrease of α-Glu-SS-31 concentration, associated with the appearance of free SS-31, in mouse plasma, the concentration of both compounds remained stable for up to 5 h, whereas SS-31 concentration decreased regularly during the same period of time.

[4] = biological target: T2, aminopeptidase A (APA) (Mus musculus, UniProt P16406); test: Histoenzymography of APA activity on frozen kidney sections of ADR-treated mice; assay type: biochemical; settings: kidney sections of ADR-exposed mice, α-Glu-βNA substrate, 37°C
T2 construct: from tissue; host or cells: frozen kidney sections of ADR-treated BALB/c male mice
T2 sequence (P16406 1-945): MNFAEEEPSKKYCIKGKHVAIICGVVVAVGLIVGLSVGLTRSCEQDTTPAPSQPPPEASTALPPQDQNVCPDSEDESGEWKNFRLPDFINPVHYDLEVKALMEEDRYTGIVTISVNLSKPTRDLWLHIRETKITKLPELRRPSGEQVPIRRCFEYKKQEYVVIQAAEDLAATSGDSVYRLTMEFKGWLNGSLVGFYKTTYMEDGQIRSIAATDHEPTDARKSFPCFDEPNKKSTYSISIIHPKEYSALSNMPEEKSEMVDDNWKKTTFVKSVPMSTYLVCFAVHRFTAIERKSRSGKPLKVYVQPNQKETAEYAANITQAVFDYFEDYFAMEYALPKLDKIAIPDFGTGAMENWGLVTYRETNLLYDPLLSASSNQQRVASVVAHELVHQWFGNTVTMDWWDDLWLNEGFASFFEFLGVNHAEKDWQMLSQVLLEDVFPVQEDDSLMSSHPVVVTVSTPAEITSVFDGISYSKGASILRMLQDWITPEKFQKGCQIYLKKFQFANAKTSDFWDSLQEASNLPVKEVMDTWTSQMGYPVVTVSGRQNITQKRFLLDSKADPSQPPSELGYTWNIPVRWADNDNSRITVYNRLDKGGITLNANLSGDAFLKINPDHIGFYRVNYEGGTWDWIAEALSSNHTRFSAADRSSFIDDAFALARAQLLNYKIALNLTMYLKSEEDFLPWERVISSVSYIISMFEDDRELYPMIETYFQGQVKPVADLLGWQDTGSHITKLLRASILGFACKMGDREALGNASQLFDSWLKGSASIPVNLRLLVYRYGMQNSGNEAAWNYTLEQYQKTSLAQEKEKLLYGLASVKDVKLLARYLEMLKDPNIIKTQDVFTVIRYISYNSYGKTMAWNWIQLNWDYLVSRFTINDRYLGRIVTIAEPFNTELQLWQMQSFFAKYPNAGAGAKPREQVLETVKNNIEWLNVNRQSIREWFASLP
Experimental: Enzymatic activities were evaluated by histoenzymography on OCT-embedded frozen kidneys sections (7 µm), as previously described ([Juillerat-Jeanneret et al., 1992]; [Juillerat-Jeanneret et al., 2000]; [Juillerat-Jeanneret et al., 2003]). Briefly, slides were fixed for 5 min in cold (−20°C) acetone, air dried at room temperature, rehydrated for 5 min in 0.9% NaCl, and exposed to the α-Glu-4-methoxy-β-naphtylamide (APA; Bachem) or γ-Glu-4-methoxy-β-naphtylamide (γ-GT; Serva) substrates and Fast Blue B (Sigma-Aldrich) at 37°C for 15 to 60 min until a red coloration was visible. The slides were washed in distilled water, counterstained with hematoxylin (Mayer) for 1 min, rinsed under tap water and then with Scott solution for 1 min, and mounted in Aquamount (Immu-mount; Thermo Shandon, Pittsburgh, PA, USA) and analyzed with a Nikon Eclipse E800 microscope and digital DXM1200 camera using ACT-1 software.
Sequential sections (7 µm) of frozen OCT-embedded kidneys of adriamycin (ADR)-treated mice were exposed at 37°C to β-methoxynaphthylamide (β-NA) specific substrates of aminopeptidase A (α-Glu-βNA, upper panels) or γ-glutamyltranspeptidase (γ-Glu-βNA, lower panels) and Fast Blue B, in the absence (none) or the presence of SS-31, α-Glu-SS-31 or γ-Glu-SS-31. The sections were then counterstained with light hematoxylin reagent. The enzymatic activity is visualized as a red precipitate. […]

## CC(C)C[C@@H](N)[C@H](O)C(=O)N[C@H](C(=O)N[C@H](C(=O)N[C@@H](CC(=O)O)C(=O)O)C(C)C)C(C)C [amastatin]
[1]; intact living EC219 cells, 40 µM α-Glu-AMC, read-out: IC50 APA
  IC50: < 1 µM

## Cc1cc(O)cc(C)c1C[C@H](NC(=O)[C@H](N)CCCNC(=N)N)C(=O)N[C@@H](CCCCN)C(=O)N[C@@H](Cc1ccccc1)C(N)=O [SS-31, D-Arg-dimethylTyr-Lys-Phe-NH2] (H-[dR][Dmt]KF-NH2)
[1]
  IC50: 8.5 ± 3.8 µM
[2]; kidney
  AUC(0-inf): 31300 ng·h/mL
  AUC(0-t): 27800 ng·h/mL
  Cmax: 17200 ng/mL
  Tmax: 1 h
  half-life: 1.1 h
  level at time molar: ~140 nM
[2]; liver
  AUC(0-inf): 22100 ng·h/mL
  AUC(0-t): 20700 ng·h/mL
  Cmax: 12700 ng/mL
  Tmax: 1 h
  half-life: 0.9 h
[2]; plasma
  AUC(0-inf): 21100 ng·h/mL
  AUC(0-t): 21100 ng·h/mL
  Cmax: 20000 ng/mL
  Tmax: 1 h
  half-life: 0.3 h
[3]; time 0 h
  Stability [% of T0]: 100%
[3]; time 0.5 h
  remaining at 0.5 h, 1 µM: 89.3%
[3]; time 1 h
  remaining at 1 h, 1 µM: 85.3%
[3]; time 3 h
  remaining at 3 h, 1 µM: 50.1%
[3]; time 5 h
  remaining at 5 h, 1 µM: 43%

## Cc1cc(O)cc(C)c1C[C@H](NC(=O)[C@@H](CCCNC(=N)N)NC(=O)[C@@H](N)CCC(=O)O)C(=O)N[C@@H](CCCCN)C(=O)N[C@@H](Cc1ccccc1)C(N)=O [α-Glu-SS-31, H-Glu-D-Arg-DMT-Lys-Phe-NH 2 .2TFA] (H-E[dR][Dmt]KF-NH2)
[4]
  enzymatic activity of APA (histoenzymography): selectively inhibited
[1]
  IC50: 13.7 ± 6.7 µM
[1]; intact living EC219 cells
  inhibition of APA activity: selective inhibition
[3]; time 0 h
  Release of SS-31 from α-Glu-SS-31: 7.5%
  Stability [% of T0]: 100%
[3]; time 0.5 h
  Release of SS-31 from α-Glu-SS-31: 9%
  remaining at 0.5 h, 1 µM: 68.5%
[3]; time 1 h
  Release of SS-31 from α-Glu-SS-31: 9%
  remaining at 1 h, 1 µM: 68.3%
[3]; time 3 h
  Release of SS-31 from α-Glu-SS-31: 10%
  remaining at 3 h, 1 µM: 66.9%
[3]; time 5 h
  Release of SS-31 from α-Glu-SS-31: 9%
  remaining at 5 h, 1 µM: 65.8%
